Values quoted from earlier work as cited in patent US20220395522A1, “Methods of Use of Glucosamine for Increasing Nitrogen Retention” (TSI Bioproducts (Xuzhou) Co., Ltd., priority 2021, published 2022).

Conditions: cited from earlier work

## N[C@H]1C(O)O[C@H](CO)[C@@H](O)[C@@H]1O (some centres unmarked) [glucosamine]
Human digestive tract
  Ingested glucosamine absorbed: 10-12%
In vivo
  Ingested glucosamine metabolized by members of the intestinal microbiota before it is absorbed: more than 50%
